Patent US6939850B2, “Altered human interleukin-1β convertase (ICE), NEDD-2, and C. elegans ced-3 polypeptides and uses therefor” (Massachusetts Institute of Technology, priority 1992, dated 2005)

Experiments:
lumbar motoneurons = experiment: Motoneuron death following limb bud removal; assay type: in vivo, chick
Source text: Peptides. Two peptide inhibitors of ICE, Acetyl-Tyr-Val-Ala-Asp-aldehyde (Ac-YVAD-CHO) and Acetyl-Tyr-Val-Ala-Asp-chloromethylketone (Ac-YVAD-CMK) and two control peptide inhibitors, Acetyl-Leu-Leu-Arg-aldehyde (Ac-LLR-CHO; Leupeptin) and n-tosyl-Lys-chloromethyl-ketone (Tos-Lys-CMK) were synthesized by Bachem Biosciences (King of Prussia, Pa.) and shown by thin layer chromatography and HPLC to be greater than 98% pure. […] Methods for administration of peptides to examine effects on naturally occurring motoneuron cell death in vivo. Although cell death of lumbar motoneurons occurs between E6 and E12, the peak period of death (i.e., the greatest number of pyknotic cells) occurs on E8 (Oppenheim et al., J Comp. Neurol. 177:87-112 (1978)). For these experiments, embryos were given a single administration of an agent on E8 0 hr and sacrificed 15 hours later. […] Ac-YVAD-CMK and Tos-Lys-CMK were administered in a solution of DMSO/BSA, whereas Ac-YVAD-CHO and leupeptin (Sigma) were in BSA alone. The solutions (50-100 μl) were dropped onto the highly vascularized chorioallantoic membrane through a window in the shell. The control groups included both DMSO and BSA or vehicle alone. Embryos were killed and staged by the Hamburger-Hamilton series (Hamburger and Hamilton, J. Morph. 88:49-92 (1951)). The thoraco-lumbar spinal cord was dissected, fixed in Camoys or Bouins fixative, processed for paraffin histology, serially sectioned (10-12 μm) and stained with either thionin or hematoxylin and eosin. Pyknotic motoneurons were identified based on criteria previously described (Chu-Wang and Oppenheim, J. Comp. Neurol. 177:33-58 (1978); Clarke and Oppenheim In Methods in Cell Biology Series; Cell Death; eds: Schwartz and Osborne. Academic Press. New York, N.Y. In press.) and were counted in every 10th or 20th section through the entire lumbar enlargement. The total number of pyknotic cells were then estimated by multiplying these values by 10 or 20. All cell counts were performed by individuals blinded with regard to drug treatment of the embryos. Methods for limb bud removal experiments. A unilateral limb bud removal was performed on E2 as described previously (Oppenheim et al., J. Comp. Neurol. 177:87-112 (1978)). Because induced cell death following limb removal begins on E5 (before that there is no difference in the number of motoneurons between the operated or unoperated sides) embryos were given one treatment of Ac-YVAD-CHO (40 μg) or BSA (control) at E5-0 hr and another at E5-12 hours (total peptide administered was 80 μg). Animals were killed at E6-0 hr. Methods were the same as described above except the section thickness was 6-8 μm (see Method for Administration of Peptides, above). Methods for limb bud interdigital regions. Embryos were treated with 100 μg of peptide or vehicle in 50 μl on E6.0 and on E7.0 (total 200 μg) as described above (Chu-Wang and Oppenheim, J. Comp. Neurol. 177:33-58 (1978); Clarke and Oppenheim In Methods in Cell Biology Series; Cell Death; eds: Schwartz and Osborne. Academic Press. New York, N.Y. In press.) and killed at E7.5. The footpads were placed in Bouin's fixative and processed as described above (see Method of Limb Bud Removal, above). Pyknotic cells in all interdigital regions were counted in every 10th section (6-8 μm) of serial transverse sections through the entire footpad.

cervical motoneurons = experiment: Cervical motoneuron cell death in vivo; set-up: species or system chick
Source text: The ability of the ICE inhibitors to block cell death in two classes of neurons whose naturally occurring death appears to be independent of target interaction was also studied. First, motoneurons in the cervical spinal cord undergo PCD between E4 and E5, with maximum levels occurring at E4.5.

[1] = tested on: undifferentiated neurons and precursor cells in the neural tube; experiment: Cell death in the early neural tube in vivo; set-up: species or system chick
[2] = limb bud removal on E2, 40 μg at E5-0 hr and E5-12 hours, mean ±SD
[3] = unoperated side, 40 μg at E5-0 hr and E5-12 hours, mean ±SD

Substance: Acetyl-Tyr-Val-Ala-Asp-aldehyde [Ac-YVAD-CHO]
- survival promoting effect (lumbar motoneurons; following limb bud removal): no survival promoting effect
- Healthy Motoneurons (lumbar) on E6, Ipsilateral (lumbar motoneurons; [2]): 11,109 ± 1592
- Pyknotic Motoneurons (lumbar) on E6, Ipsilateral (lumbar motoneurons; [2]): 317 ± 89
- Healthy Motoneurons (lumbar) on E6, Contralateral (lumbar motoneurons; [3]): 17,914 ± 1733
- Pyknotic Motoneurons (lumbar) on E6, Contralateral (lumbar motoneurons; [3]): 67 ± 13
- survival promoting effects on cervical motoneurons (cervical motoneurons; compared to control or Ac-LLR-CHO treated animals): no survival promoting effects
- Pyknotic Cervical Motoneurons on E4.5 (cervical motoneurons; mean ±SD): 25.9 ± 3.4
- survival promoting effects on floorplate or dorsal spinal cord cells ([1]; compared to control animals): no survival promoting effects
- Pyknotic Cells in the Early Neural Tube, Dorsal Spinal Cord ([1]; mean ±SD): 1.350 ± 0.297
- Pyknotic Cells in the Early Neural Tube, Floor Plate ([1]; mean ±SD): 1.115 ± 0.246
